Experimental data taken from ChEMBL document CHEMBL1143749, “A new therapeutic approach in Alzheimer disease: some novel pyrazole derivatives as dual MAO-B inhibitors and antiinflammatory analgesics” (Bioorg Med Chem, 2007).

Tests used:
Mus musculus [1] = assay: Analgesic activity against p-Benzoquinone-induced writhings in Swiss Albino mouse assessed as number writhings at 100 mg/kg, po; format: functional
[2] = biological target: T1, Amine oxidase [flavin-containing] B (Rattus norvegicus, UniProt P19643); assay: Inhibition of rat liver MAOB after 60 mins pre-incubation
T1 sequence (P19643 whole entry): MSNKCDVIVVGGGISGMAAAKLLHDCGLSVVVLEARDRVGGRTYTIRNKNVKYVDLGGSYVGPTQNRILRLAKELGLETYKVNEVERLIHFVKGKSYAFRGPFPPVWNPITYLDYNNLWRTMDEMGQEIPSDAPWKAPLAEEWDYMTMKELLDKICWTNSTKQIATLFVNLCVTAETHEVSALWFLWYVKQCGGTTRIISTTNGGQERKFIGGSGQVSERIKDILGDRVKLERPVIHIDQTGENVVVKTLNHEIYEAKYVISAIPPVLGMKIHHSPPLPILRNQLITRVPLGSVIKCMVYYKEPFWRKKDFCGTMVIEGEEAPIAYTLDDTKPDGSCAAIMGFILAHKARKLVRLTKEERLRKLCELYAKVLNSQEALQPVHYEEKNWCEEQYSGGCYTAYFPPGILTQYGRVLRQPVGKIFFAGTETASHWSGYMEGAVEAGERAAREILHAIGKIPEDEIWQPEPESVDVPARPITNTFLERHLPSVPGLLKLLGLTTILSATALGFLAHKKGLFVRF

Mus musculus [3] = assay: Inhibition of carrageenan-induced hind paw oedema in Swiss Albino mouse at 100 mg/kg, po after 270 mins relative to control; format: functional; settings: for inhibition in vivo at 100 mg/kg: Mus musculus, Swiss Albino, po, 4.5 h
Mus musculus [4] = assay: Toxicity in Swiss Albino mouse assessed as ulcerogenic abdomen lesions at 100 mg/kg, po; format: organism-based; parameters: dose 100 mg/kg, route oral; settings: in vivo
Mus musculus [5] = assay: Inhibition of carrageenan-induced hind paw oedema in Swiss Albino mouse at 100 mg/kg, po after 360 mins relative to control; format: functional; settings: for inhibition in vivo at 100 mg/kg: Mus musculus, Swiss Albino, po, 6 h
Mus musculus [6] = assay: Inhibition of carrageenan-induced hind paw oedema in Swiss Albino mouse at 100 mg/kg, po after 90 mins relative to control; format: functional; settings: for inhibition in vivo at 100 mg/kg: Mus musculus, Swiss Albino, po, 1.5 h
Mus musculus [7] = assay: Inhibition of carrageenan-induced hind paw oedema in Swiss Albino mouse at 100 mg/kg, po after 180 mins relative to control; format: functional; settings: for inhibition in vivo at 100 mg/kg: Mus musculus, Swiss Albino, po, 3 h
Mus musculus [8] = assay: Inhibition of p-Benzoquinone-induced writhings in Swiss Albino mouse at 100 mg/kg, po relative to control; format: functional; settings: for inhibition in vivo at 100 mg/kg: Mus musculus, Swiss Albino, po
[9] = biological target: T2, Amine oxidase [flavin-containing] A (Rattus norvegicus, UniProt P21396); assay: Inhibition of rat liver MAOA after 60 mins pre-incubation
T2 sequence (P21396 whole entry): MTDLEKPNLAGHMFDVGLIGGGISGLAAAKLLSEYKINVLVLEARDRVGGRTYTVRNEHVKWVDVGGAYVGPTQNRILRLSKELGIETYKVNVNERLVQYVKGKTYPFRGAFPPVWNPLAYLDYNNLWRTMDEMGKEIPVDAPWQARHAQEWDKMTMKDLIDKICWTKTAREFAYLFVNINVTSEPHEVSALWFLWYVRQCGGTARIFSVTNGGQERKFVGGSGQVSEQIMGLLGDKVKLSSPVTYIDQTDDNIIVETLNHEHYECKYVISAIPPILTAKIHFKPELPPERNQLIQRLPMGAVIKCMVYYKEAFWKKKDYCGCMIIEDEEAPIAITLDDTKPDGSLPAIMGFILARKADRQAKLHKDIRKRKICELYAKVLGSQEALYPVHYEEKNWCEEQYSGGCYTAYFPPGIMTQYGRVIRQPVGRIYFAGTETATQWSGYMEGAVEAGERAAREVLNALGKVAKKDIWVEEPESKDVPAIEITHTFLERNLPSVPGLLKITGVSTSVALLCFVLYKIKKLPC

[10] = biological target: T1, Amine oxidase [flavin-containing] B; assay: Inhibition of rat liver MAOB
Mus musculus [11] = assay: Inhibition of acetic acid-induced capillary permeability in Swiss Albino mouse at 100 mg/kg, po; format: functional
[12] = biological target: T2, Amine oxidase [flavin-containing] A; assay: Inhibition of rat liver MAOA
Mus musculus [13] = assay: Inhibition of acetic acid-induced capillary permeability in Swiss Albino mouse at 10 mg/kg, po; settings: read-out: Inhibition

Row | SMILES | writhing count (Mus musculus [1]) | IC50 [2] | inhibition in vivo at 100 mg/kg (Mus musculus [3]) | Activity (Mus musculus [4]) | inhibition in vivo at 100 mg/kg (Mus musculus [5]) | inhibition in vivo at 100 mg/kg (Mus musculus [6]) | inhibition in vivo at 100 mg/kg (Mus musculus [7]) | inhibition in vivo at 100 mg/kg (Mus musculus [8]) | IC50 [9] | Ki [10] | inhibition in vivo at 100 mg/kg (Mus musculus [11]) | Inhibition (Mus musculus [3]) | Inhibition (Mus musculus [5]) | Inhibition (Mus musculus [6]) | Inhibition (Mus musculus [7]) | Inhibition (Mus musculus [8]) | Ki [12] | inhibition in vivo at 10 mg/kg (Mus musculus [13]) | Activity (Mus musculus [1])
1 | CCCNC(=S)N1N=C(c2ccc(C)cc2)CC1c1ccc[nH]1 (stereo not drawn) | 25.3 writhings | 389 µM | 15.7% | Non-toxic | 22.7% | 14.6% | 20.9% | 48.2% | 369 µM |  |  |  |  |  |  |  |  |  | 
2 | COc1ccc(C2=NN(C(=S)Nc3ccccc3)C(c3ccc[nH]3)C2)cc1 (stereo not drawn) | 25.2 writhings | 30.1 µM | 16.5% | Non-toxic | 21.6% | 20.7% | 22.6% | 48.4% | 431 µM | 37.1 µM | 22.3% |  |  |  |  |  |  |  | 
3 | Cc1ccc(C2=NN(C(=S)Nc3ccccc3)C(c3ccc[nH]3)C2)cc1 (stereo not drawn) | 45.2 writhings | 351 µM |  | Non-toxic |  |  |  |  | 300 µM |  |  | 6.1% | 11.8% | 9.1% | 13.1% | 7.4% |  |  | 
4 | CNC(=S)N1N=C(c2ccc(C)cc2)CC1c1ccc[nH]1 (stereo not drawn) | 39.7 writhings | 349 µM | 12.2% | Non-toxic | 16.3% | 13.2% | 11.2% | 18.6% | 295 µM |  |  |  |  |  |  |  |  |  | 
5 | CNC(=S)N1N=C(c2ccc(Cl)cc2)CC1c1ccc[nH]1 (stereo not drawn) | 37.8 writhings | 416 µM | 7.2% |  | 1.9% |  | 6.6% | 22.5% | 11.2 µM |  | 20.7% |  |  |  |  |  | 13.2 µM |  | 
6 | COc1ccc2c(c1)c(CC(=O)O)c(C)n2C(=O)c1ccc(Cl)cc1 [INDOMETHACIN] |  |  | 33.6% |  | 42.2% | 32.3% | 37.1% |  |  |  |  |  |  |  |  |  |  | 48.1% | 
7 | CCNC(=S)N1N=C(c2ccc(OC)cc2)CC1c1ccc[nH]1 (stereo not drawn) | 21.2 writhings | 22.1 µM | 18.9% | Non-toxic | 27.6% | 23.2% | 22.7% | 56.6% | 400 µM | 24 µM | 25.9% |  |  |  |  |  |  |  | 
8 | CCCNC(=S)N1N=C(c2ccc(OC)cc2)CC1c1ccc[nH]1 (stereo not drawn) | 19.5 writhings | 29.1 µM | 22.6% | Non-toxic | 32.8% | 20.3% | 23.6% | 60% | 409 µM | 33.7 µM | 34.8% |  |  |  |  |  |  |  | 
9 | C#CCN(C)Cc1ccccc1 [PARGYLINE] |  | 2.85 µM |  |  |  |  |  |  | 390 µM |  |  |  |  |  |  |  |  |  | 
10 | CCCNC(=S)N1N=C(c2ccc(Cl)cc2)CC1c1ccc[nH]1 (stereo not drawn) | 20.5 writhings | 421 µM | 23.9% | Non-toxic | 28.1% | 19.8% | 25.2% | 57.9% | 29.2 µM |  | 28.3% |  |  |  |  |  | 33.2 µM |  | 
11 | CCNC(=S)N1N=C(c2ccc(Cl)cc2)CC1c1ccc[nH]1 (stereo not drawn) | 21.5 writhings | 450 µM | 20.6% | Non-toxic | 24% | 16.1% | 21.3% | 55.9% | 20.2 µM |  | 23.5% |  |  |  |  |  | 26.9 µM |  | 
12 | Cl.S=C(Nc1ccccc1)N1N=C(c2ccc(Cl)cc2)CC1c1ccc[nH]1 (stereo not drawn) |  | 441 µM |  | Non-toxic |  |  |  |  | 59.3 µM |  |  |  |  |  |  |  | 60.8 µM |  | 
13 | CC(=O)Oc1ccccc1C(=O)O [ASPIRIN] |  |  |  |  |  |  |  | 54.3% |  |  |  |  |  |  |  |  |  |  | 22.3
14 | CNC(=S)N1N=C(c2ccc(OC)cc2)CC1c1ccc[nH]1 (stereo not drawn) | 39.2 writhings | 12.5 µM | 10.5% | Non-toxic | 17.7% | 14.2% | 14.7% | 19.7% | 430 µM | 12.5 µM |  |  |  |  |  |  |  |  | 
15 | CCNC(=S)N1N=C(c2ccc(C)cc2)CC1c1ccc[nH]1 (stereo not drawn) | 41.3 writhings | 369 µM | 12.4% | Non-toxic | 16.3% | 4.9% | 10.5% | 15.4% | 329 µM |  |  |  |  |  |  |  |  |  | 
